Assays:
[1] = biological target: T1, PACAP receptor type I (Homo sapiens, UniProt P41586); conditions: cited from earlier work
T1 sequence (P41586 21-468): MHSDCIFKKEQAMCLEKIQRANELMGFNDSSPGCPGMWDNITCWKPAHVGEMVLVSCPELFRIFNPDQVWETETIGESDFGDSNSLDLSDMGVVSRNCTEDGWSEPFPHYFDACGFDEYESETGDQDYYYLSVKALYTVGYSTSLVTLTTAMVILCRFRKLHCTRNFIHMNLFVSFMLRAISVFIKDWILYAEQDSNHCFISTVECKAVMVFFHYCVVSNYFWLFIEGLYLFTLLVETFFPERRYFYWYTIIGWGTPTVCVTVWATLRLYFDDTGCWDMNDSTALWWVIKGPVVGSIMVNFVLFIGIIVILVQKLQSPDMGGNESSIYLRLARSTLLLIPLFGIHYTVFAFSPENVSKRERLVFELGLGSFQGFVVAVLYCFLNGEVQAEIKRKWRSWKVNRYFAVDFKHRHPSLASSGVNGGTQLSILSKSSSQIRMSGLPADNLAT

[2] = test system: PACAP receptor type II; conditions: PACAP versus VIP; cited from earlier work
[3] = test system: CD 83 surface molecules on human dentritic cells; assay: Effect of VIP on maturation of human dentritic cells: CD 83 surface molecules, fluorescence-activated cell analysis; format: cell-based
Text: (§1) FIGS. 1-11 show the effect of VIP on the maturation of human dentritic cells. […] is a characteristic surface protein on mature dentritic cells. Low rates of said protein indicate non-maturation of cells and thus, the inability to execute their biological function. […] Said reduction is indicated by the value M1 38.22—when measuring after application of 9.1 μmol—and compared to the value M1 81.26 (FIG. 10) of untreated cells (FIG. 1)—in the fluorescence-activated cell analysis. This procedure consists of searching the cell surfaces with the help of fluorescence-marked antibodies for the corresponding antigens (here: CD 83).

[4] = test system: MHC I surface molecules on human dentritic cells; assay: Effect of VIP on human dentritic cells: MHC I surface molecules, fluorescence-activated cell analysis; format: cell-based
[5] = test system: MHC II surface molecules on human dentritic cells; assay: Effect of VIP on human dentritic cells: MHC II surface molecules, fluorescence-activated cell analysis; format: cell-based
Text: [The procedure below names another target; the source lists this target under the same test.] as §1

[6] = VIP 9.1 μM, marker All, FIG. 11

His-Ser-Asp-Gly-Ile-Phe-Thr-Asp-Ser-Tyr-Ser-Arg-Tyr-Arg-Lys-Gln-Met-Ala-Val-Lys-Lys-Tyr-Leu-Ala-Ala-Val-Leu-Gly-Lys-Arg-Tyr-Lys-Gln-Arg-Val-Lys-Asn-Lys [PACAP]
affinity of receptor type I [1]: high affinity | affinity of receptor type II [2]: similar

His-Ser-Asp-Ala-Val-Phe-Thr-Asp-Asn-Tyr-Thr-Arg-Leu-Arg-Lys-Gln-Met-Ala-Val-Lys-Lys-Tyr-Leu-Asn-Ser-Ile-Leu-Asn [VIP]
CD 83 % Gated, marker All ([3]; VIP 1 μM, FIG. 6): 100.00% | CD 83 Mean, marker All ([3]; VIP 1 μM, FIG. 6): 108.13 | CD 83 % Gated, marker M1 ([3]; VIP 1 μM, FIG. 6): 69.70% | CD 83 Mean, marker M1 ([3]; VIP 1 μM, FIG. 6): 137.30 | CD 83 % Gated, marker All ([3]; VIP 9.1 μM, FIG. 10): 100.00% | CD 83 Mean, marker All ([3]; VIP 9.1 μM, FIG. 10): 76.48 | CD 83 % Gated, marker M1 ([3]; VIP 9.1 μM, FIG. 10): 38.22% | CD 83 Mean, marker M1 ([3]; VIP 9.1 μM, FIG. 10): 143.06 | value M1 for CD 83 ([3]; after application of 9.1 μmol VIP, untreated cells 81.26): 38.22 | effect on CD 83 surface molecules ([3]; application of 1 μmol VIP (FIG. 5)): dramatic reduction | effect on CD 83 surface molecules ([3]; application of 9.1 μmol VIP (FIG. 9)): dramatic reduction | value M1 for MHC 1 ([4]; 9.1 μmol VIP, untreated cells 85.59): 70.57 | MHC I % Gated, marker All ([4]; VIP 1 μM, marker All, FIG. 7): 100.00% | MHC I Mean, marker All ([4]; VIP 1 μM, marker All, FIG. 7): 200.61 | MHC I % Gated, marker M1 ([4]; VIP 1 μM, marker M1, FIG. 7): 78.69% | MHC I Mean, marker M1 ([4]; VIP 1 μM, marker M1, FIG. 7): 242.97 | MHC 1 % Gated, marker All [4, 6]: 100.00% | MHC 1 Mean, marker All [4, 6]: 136.67 | MHC 1 % Gated, marker M1 ([4]; VIP 9.1 μM, marker M1, FIG. 11): 70.57% | MHC 1 Mean, marker M1 ([4]; VIP 9.1 μM, marker M1, FIG. 11): 174.61 | inhibition of MHC I surface molecules compared with CD 83 ([4]; same dose of VIP): far less inhibited | value M1 for MHC II ([5]; 9.1 μmol VIP, untreated cells 83.94): 77.73 | MHC II % Gated, marker All ([5]; VIP 1 μM, FIG. 8): 100.00% | MHC II Mean, marker All ([5]; VIP 1 μM, FIG. 8): 170.33 | MHC II % Gated, marker M1 ([5]; VIP 1 μM, FIG. 8): 77.41% | MHC II Mean, marker M1 ([5]; VIP 1 μM, FIG. 8): 207.21 | MHC II % Gated, marker All ([5]; VIP 9.1 μM, FIG. 12): 100.00% | MHC II Mean, marker All ([5]; VIP 9.1 μM, FIG. 12): 175.73 | MHC II % Gated, marker M1 ([5]; VIP 9.1 μM, FIG. 12): 77.73% | MHC II Mean, marker M1 ([5]; VIP 9.1 μM, FIG. 12): 213.25 | inhibition of MHC II surface molecules compared with CD 83 ([5]; same dose of VIP): far less inhibited | affinity of receptor type I [1]: very low affinity | affinity of receptor type II [2]: similar

Reference: patent US7468353B2, “Biologically active substance of a vasoactive intestinal peptide for treating interstitial lung diseases” (Mondobiotech Laboratories Anstalt, priority 2003, dated 2008)
